Test results from patent US8669274B2, “Metalloenzyme inhibitor compounds” (Viamet Pharmaceuticals, Inc., priority 2010, dated 2014).

Legend:
CYP2C9 = CYP2C9 (Homo sapiens, UniProt P11712); assay: Inhibition of liver cytochrome P450 enzymes (pooled human liver microsomes), CYP2C9
CYP3A4 = CYP3A4 (Homo sapiens, UniProt P08684); assay: Inhibition of liver cytochrome P450 enzymes (pooled human liver microsomes), CYP3A4
CYP2C19 = CYP2C19 (Homo sapiens, UniProt P33261); assay: Inhibition of liver cytochrome P450 enzymes (pooled human liver microsomes), CYP2C19
Chain of CYP2C19 (P33261 whole entry): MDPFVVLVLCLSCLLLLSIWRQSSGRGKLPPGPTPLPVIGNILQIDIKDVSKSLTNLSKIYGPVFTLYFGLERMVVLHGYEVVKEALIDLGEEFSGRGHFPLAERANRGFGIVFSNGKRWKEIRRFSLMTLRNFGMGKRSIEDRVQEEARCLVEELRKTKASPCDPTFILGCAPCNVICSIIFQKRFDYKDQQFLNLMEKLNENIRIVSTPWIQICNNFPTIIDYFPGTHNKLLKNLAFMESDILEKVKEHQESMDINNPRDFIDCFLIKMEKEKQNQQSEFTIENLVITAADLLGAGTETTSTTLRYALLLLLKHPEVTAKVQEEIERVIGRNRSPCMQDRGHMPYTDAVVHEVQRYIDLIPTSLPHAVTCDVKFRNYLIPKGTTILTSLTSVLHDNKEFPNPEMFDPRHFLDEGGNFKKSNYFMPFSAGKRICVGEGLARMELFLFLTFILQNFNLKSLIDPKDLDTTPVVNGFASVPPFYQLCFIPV

CYP17 = target: T1, CYP17 (Rattus norvegicus, UniProt P11715); assay: Inhibition of CYP17 (pooled rat testicular microsomes); type: biochemical
T1 construct: from tissue; host or cells: pooled rat testicular microsomes
T1 sequence (P11715 1-507): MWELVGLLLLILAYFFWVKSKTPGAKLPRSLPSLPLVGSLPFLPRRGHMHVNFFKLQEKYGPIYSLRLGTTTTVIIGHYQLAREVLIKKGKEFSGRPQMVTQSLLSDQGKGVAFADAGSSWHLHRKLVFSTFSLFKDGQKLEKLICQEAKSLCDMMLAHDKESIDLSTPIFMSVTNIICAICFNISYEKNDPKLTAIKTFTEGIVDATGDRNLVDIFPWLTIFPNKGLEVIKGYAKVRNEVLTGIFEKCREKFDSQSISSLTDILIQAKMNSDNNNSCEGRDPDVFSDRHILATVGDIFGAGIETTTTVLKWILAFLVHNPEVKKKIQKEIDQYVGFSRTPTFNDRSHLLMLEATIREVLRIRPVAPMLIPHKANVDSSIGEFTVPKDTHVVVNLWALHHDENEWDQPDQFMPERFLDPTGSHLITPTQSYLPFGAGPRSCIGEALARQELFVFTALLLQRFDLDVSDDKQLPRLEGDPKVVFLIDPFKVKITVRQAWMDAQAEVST
Procedure: CYP17 activity was assayed according to the following procedure. […] The individual test compound and isozyme inhibitor solutions were then diluted 20-fold with deionized water (50:950 v/v) to concentrations of 135, 27, 4.5, 0.9, 0.15, 0.03 and 0.005 μM. The percent of organic solvent attributable to the test compound or inhibitor mixture in the final reaction mixture is 1%. Pooled rat testicular microsome suspension (20 mg/mL) was diluted with phosphate buffer to obtain a 1.25 mg/mL suspension. A solution of NADPH was prepared in phosphate buffer at a concentration of 2.5×. A stock solution of the substrate was prepared in DMSO:MeCN (50:50 v/v), mixed, and diluted in phosphate buffer to obtain a single solution containing the substrate at 5 μM. The percent of organic solvent attributable to substrate mixture in the final reaction mixture is 1%. Substrate solution and microsome suspension were combined in a 1:1 volume ratio, mixed, and distributed to reaction wells of a PCR plate. Individual test compound or the inhibitor solution at each concentration was added to the wells and mixed by repetitive aspirate/dispense cycles. For active controls, blank test compound diluent was added in place of test compound solution. Reaction mixtures were allowed to equilibrate at 37° C. for approximately two minutes before adding NADPH solution to initiate reaction, followed by pipette mixing of reaction mixture.

Chain of CYP3A4 (P08684 whole entry): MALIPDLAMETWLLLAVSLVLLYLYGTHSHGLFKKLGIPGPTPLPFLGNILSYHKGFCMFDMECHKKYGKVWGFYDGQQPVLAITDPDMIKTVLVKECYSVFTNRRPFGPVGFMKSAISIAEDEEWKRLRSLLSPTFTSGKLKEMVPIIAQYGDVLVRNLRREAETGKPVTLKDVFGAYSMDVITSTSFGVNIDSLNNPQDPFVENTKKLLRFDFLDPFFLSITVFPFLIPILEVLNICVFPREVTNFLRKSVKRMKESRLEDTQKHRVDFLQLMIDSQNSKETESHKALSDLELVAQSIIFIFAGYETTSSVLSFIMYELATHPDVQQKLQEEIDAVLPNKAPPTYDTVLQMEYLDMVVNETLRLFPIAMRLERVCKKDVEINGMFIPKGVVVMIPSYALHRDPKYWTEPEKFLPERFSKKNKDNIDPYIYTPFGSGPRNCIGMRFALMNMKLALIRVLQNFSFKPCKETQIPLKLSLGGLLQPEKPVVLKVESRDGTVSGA
Chain of CYP2C9 (P11712 whole entry): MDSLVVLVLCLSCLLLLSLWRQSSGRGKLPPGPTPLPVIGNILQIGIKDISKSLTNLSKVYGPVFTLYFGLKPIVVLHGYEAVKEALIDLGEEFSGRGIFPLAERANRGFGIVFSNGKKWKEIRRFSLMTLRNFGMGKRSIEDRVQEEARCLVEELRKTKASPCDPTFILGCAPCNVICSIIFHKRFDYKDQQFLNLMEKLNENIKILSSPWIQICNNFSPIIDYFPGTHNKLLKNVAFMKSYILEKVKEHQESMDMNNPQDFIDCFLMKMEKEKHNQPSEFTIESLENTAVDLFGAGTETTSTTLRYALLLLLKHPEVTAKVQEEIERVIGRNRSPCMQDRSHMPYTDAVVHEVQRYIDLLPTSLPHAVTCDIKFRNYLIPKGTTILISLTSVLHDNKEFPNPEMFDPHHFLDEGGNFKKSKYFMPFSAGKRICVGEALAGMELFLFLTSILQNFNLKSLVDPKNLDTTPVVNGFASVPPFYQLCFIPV

SMILES	IC50 (CYP2C9) [µM]	IC50 (CYP3A4) [µM]	IC50 (CYP2C19) [µM]	IC50 (CYP17) [µM]
COc1cc2ccc(C(C(C)C)n3ccnn3)cc2cc1OC (centres unmarked) [Example 1, 1-(1-(6,7-dimethoxynaphthalen-2-yl)-2-methylpropyl)-1H-1,2,3-triazole]	6.5	11	8.4	0.05
CC(C)C(c1ccc2cc(OCC(F)(F)F)c(OCC(F)(F)F)cc2c1)n1ccnn1 (centres unmarked) [Example 2, 1-(1-(6,7-bis(2,2,2-trifluoroethoxy)naphthalen-2-yl)-2-methylpropyl)-1H-1,2,3-triazole]	2.9	> 60	4.4	0.48
CC(C)C(c1ccc2cc(OCC(F)(F)F)ccc2n1)n1ccnn1 (centres unmarked) [Example 3, 2-(2-Methyl-1-(1H-1,2,3-triazol-1-yl)propyl)-6-(2,2,2-trifluoroethoxy)quinoline]	3.2	19	5	0.03

Results, then the compound that gave them:

IC50 (CYP2C9) [µM]	IC50 (CYP3A4) [µM]	IC50 (CYP2C19) [µM]	IC50 (CYP17) [µM]	SMILES
24	84	31	0.042	CC(C)C(c1ccc2cc(-c3ccc(F)cc3)ccc2n1)n1ccnn1 (centres unmarked) [Example 4, 6-(4-Fluorophenyl)-2-(2-methyl-1-(1H-1,2,3-triazol-1-yl)propyl)quinoline]
–	–	–	0.4	CC(=O)N1CCN(c2ccc(OCC3COC(Cn4ccnc4)(c4ccc(Cl)cc4Cl)O3)cc2)CC1 (centres unmarked) [Ketoconazole, ketoconazole, reference compound]
